According to patent US11839679B2, “Gamma-diketones for treatment and prevention of aging skin and wrinkles” (BioSplice Therapeutics, Inc., priority 2014, dated 2023):

Test system: fine lines, wrinkles in the outer canthus of the eyes (crow's feet area)
Assay: Panelist self-assessment questionnaire, Example 1
Assay type: in vivo, human
Design: key to Q2 appearance of my skin around either of my eyes, Score: 1: Better; 2: Little better; 3: Same; 4: Little worse; 5: Worse
Settings: for Q3 how do you feel about the treated area surrounding your eyes and the appearance of wrinkles, % Responders Score 3: Score 3 = Neither satisfied or dissatisfied; for Q2 appearance of my skin around either of my eyes, % Responders Score 3: Score 3 = Same; for Q4 any discomfort, other than slight tingling, in the treated area during the study, % Responders Score 3: Score 3 = Yes, occasional discomfort lasting more than one hour; for Q1 My wrinkles in the eye area have improved, % Responders Score 4: Score 4 = Disagree; for Q3 how do you feel about the treated area surrounding your eyes and the appearance of wrinkles, % Responders Score 4: Score 4 = Dissatisfied; for Q2 appearance of my skin around either of my eyes, % Responders Score 4: Score 4 = Little worse; for Q4 any discomfort, other than slight tingling, in the treated area during the study, % Responders Score 4: Score 4 = Yes, every day lasting less than an hour; for Q1 My wrinkles in the eye area have improved, % Responders Score 5: Score 5 = Strongly disagree; for Q3 how do you feel about the treated area surrounding your eyes and the appearance of wrinkles, % Responders Score 5: Score 5 = Very Dissatisfied; for Q2 appearance of my skin around either of my eyes, % Responders Score 5: Score 5 = Worse; for Q4 any discomfort, other than slight tingling, in the treated area during the study, % Responders Score 5: Score 5 = Yes, everyday lasting more than an hour
Method: Three groups of women were recruited to evaluate and compare the efficacy of three anti-aging test products (targeting the periorbital eye area) intended to reduce the appearance of fine lines, wrinkles in the outer canthus of the eyes (crow's feet area) over a 12 week period. Wrinkle assessment was conducted instrumentally using a Visioscan image analysis system. Effectiveness of the test product was evaluated using panelist self-assessment via questionnaire responses comprised of 3-4 questions (Q1, Q2, Q3 & Q4). Each stage in the progression of treatments was photographically documented using a High Resolution Scientifically Matched Photography technique. Image analysis was utilized to quantify changes in fine lines and crow's feet condition observed in the Scientifically Matched Photographs.
Subject Selection: • Number: Six subjects (two per group) to complete the study. • Sex: Females • Race: Caucasian/Asian/Hispanic • Age Range: 40 through 60 years old
Test samples: • Topical 0.15% of Compound #222 in Oil (a 50/50 mixture of • Propylene Glycol Dicaprylate/Dicaprate and Caprylic/Capric Triglyceride) (Cohort 1) • Topical 0.15% of Compound #222 in PEG400 (Cohort 2) • Topical 0.05% of Compound #222 in PEG400 (Cohort 3)
All subjects were instructed to use the test material once a day, as part of their daily skin care routine. Immediately following baseline evaluations, the subjects were issued the product with the following instructions:
GROUP 1—Compound #222 Topical 0.15% in oil (Cohort 1): The subjects were instructed to hold the bottle at an angle such that the roller-ball was at bottom and apply the roller-ball to the periorbital area, including the crow's feet area, 2-3 times, starting from the area under the eye (and above the cheekbone) and moving up towards the outer tip of the eye-brow. After 2-3 rolls, they were able to see wetness on the treated area. This procedure was repeated for the other eye.
GROUPS 2 & 3 Compound #222 Topical 0.15% in PEG (Cohort 2) & Compound #222 Topical 0.05% in PEG (Cohort 3): The subjects were instructed to hold the dispenser upright with one hand and with the tip of the index finger on the pump (similar to holding a spray container), pour a small amount of the product into the palm of their other hand by pumping once or twice. The product was then applied on to the periorbital area, including the crow's feet area, of both eyes with their index finger.
[…] After acclimating to ambient conditions, High Resolution Scientifically Matched Photographs were be taken and biophysical measurements (Surface Evaluation of Living Skin via Visioscan) were repeated using the standard template to identify test sites on the face. In addition (during the acclimation period) all participants were be asked to fill out a self-assessment questionnaire.
The source data was Visioscan and PhotoGrammetrix Image Analysis readings along with subjective assessments, which were totaled and reported as average scores. Photographs were placed side by side as to compare the photographs of before and after application of the test product in the eye area. Wrinkle reduction analysis source data consisted of crow's feet area quantification in relative units (px), collected at baseline and, the week 2, 4, 8 and 12 evaluations. The data obtained via Visioscan and from PhotoGrammetrix Image Analysis was quoted as % differences from baseline at each of the previously described time points. A paired t-test analysis was conducted in order to compare the results of post test product application measurements to baseline measurements where applicable. Statistical significance was established if p≤(α=0.05) was calculated.

[1] = Day 7, Topical 0.05% in PEG (Cohort 3)
[2] = Day 7, Topical 0.15% in Oil (Cohort 1)
[3] = Day 7, Topical 0.15% in PEG (Cohort 2)
[4] = Day 14, Topical 0.05% in PEG (Cohort 3)
[5] = Day 14, Topical 0.15% in Oil (Cohort 1)
[6] = Day 14, Topical 0.15% in PEG (Cohort 2)

- Q4 any discomfort, other than slight tingling, in the treated area during the study, % Responders Score 3 [1]: 0%
- Q4 any discomfort, other than slight tingling, in the treated area during the study, % Responders Score 3 [2]: 0%
- Q4 any discomfort, other than slight tingling, in the treated area during the study, % Responders Score 3 [3]: 0%
- Q4 any discomfort, other than slight tingling, in the treated area during the study, % Responders Score 3 [4]: 0%
- Q4 any discomfort, other than slight tingling, in the treated area during the study, % Responders Score 3 [5]: 0%
- Q4 any discomfort, other than slight tingling, in the treated area during the study, % Responders Score 3 [6]: 0%
- Q4 any discomfort, other than slight tingling, in the treated area during the study, % Responders Score 4 [1]: 0%
- Q4 any discomfort, other than slight tingling, in the treated area during the study, % Responders Score 4 [2]: 0%
- Q4 any discomfort, other than slight tingling, in the treated area during the study, % Responders Score 4 [3]: 0%
- Q4 any discomfort, other than slight tingling, in the treated area during the study, % Responders Score 4 [4]: 0%
- Q4 any discomfort, other than slight tingling, in the treated area during the study, % Responders Score 4 [5]: 0%
- Q4 any discomfort, other than slight tingling, in the treated area during the study, % Responders Score 4 [6]: 50%
- Q4 any discomfort, other than slight tingling, in the treated area during the study, % Responders Score 5 [1]: 0%
- Q4 any discomfort, other than slight tingling, in the treated area during the study, % Responders Score 5 [2]: 0%
- Q4 any discomfort, other than slight tingling, in the treated area during the study, % Responders Score 5 [3]: 0%
- Q4 any discomfort, other than slight tingling, in the treated area during the study, % Responders Score 5 [4]: 0%
- Q4 any discomfort, other than slight tingling, in the treated area during the study, % Responders Score 5 [5]: 0%
- Q4 any discomfort, other than slight tingling, in the treated area during the study, % Responders Score 5 [6]: 0%
Structure (SMILES): O=C(CCC(=O)c1ccc2c(c1)OCO2)c1ccccc1 [#222]
- Q3 how do you feel about the treated area surrounding your eyes and the appearance of wrinkles, % Responders Score 3 [1]: 50%
- Q3 how do you feel about the treated area surrounding your eyes and the appearance of wrinkles, % Responders Score 3 [2]: 50%
- Q3 how do you feel about the treated area surrounding your eyes and the appearance of wrinkles, % Responders Score 3 [3]: 50%
- Q3 how do you feel about the treated area surrounding your eyes and the appearance of wrinkles, % Responders Score 3 [4]: 0%
- Q3 how do you feel about the treated area surrounding your eyes and the appearance of wrinkles, % Responders Score 3 [5]: 50%
- Q3 how do you feel about the treated area surrounding your eyes and the appearance of wrinkles, % Responders Score 3 [6]: 0%
- Q2 appearance of my skin around either of my eyes, % Responders Score 3 [1]: 0%
- Q2 appearance of my skin around either of my eyes, % Responders Score 3 [2]: 50%
- Q2 appearance of my skin around either of my eyes, % Responders Score 3 [3]: 50%
- Q2 appearance of my skin around either of my eyes, % Responders Score 3 [4]: 0%
- Q2 appearance of my skin around either of my eyes, % Responders Score 3 [5]: 50%
- Q2 appearance of my skin around either of my eyes, % Responders Score 3 [6]: 50%
- Q1 My wrinkles in the eye area have improved, % Responders Score 4 [1]: 0%
- Q1 My wrinkles in the eye area have improved, % Responders Score 4 [2]: 0%
- Q1 My wrinkles in the eye area have improved, % Responders Score 4 [3]: 50%
- Q1 My wrinkles in the eye area have improved, % Responders Score 4 [4]: 0%
- Q1 My wrinkles in the eye area have improved, % Responders Score 4 [5]: 50%
- Q1 My wrinkles in the eye area have improved, % Responders Score 4 [6]: 50%
- Q3 how do you feel about the treated area surrounding your eyes and the appearance of wrinkles, % Responders Score 4 [1]: 0%
- Q3 how do you feel about the treated area surrounding your eyes and the appearance of wrinkles, % Responders Score 4 [2]: 0%
- Q3 how do you feel about the treated area surrounding your eyes and the appearance of wrinkles, % Responders Score 4 [3]: 0%
- Q3 how do you feel about the treated area surrounding your eyes and the appearance of wrinkles, % Responders Score 4 [4]: 0%
- Q3 how do you feel about the treated area surrounding your eyes and the appearance of wrinkles, % Responders Score 4 [5]: 0%
- Q3 how do you feel about the treated area surrounding your eyes and the appearance of wrinkles, % Responders Score 4 [6]: 50%
- Q2 appearance of my skin around either of my eyes, % Responders Score 4 [1]: 0%
- Q2 appearance of my skin around either of my eyes, % Responders Score 4 [2]: 0%
- Q2 appearance of my skin around either of my eyes, % Responders Score 4 [3]: 0%
- Q2 appearance of my skin around either of my eyes, % Responders Score 4 [4]: 0%
- Q2 appearance of my skin around either of my eyes, % Responders Score 4 [5]: 0%
- Q2 appearance of my skin around either of my eyes, % Responders Score 4 [6]: 0%
- Q1 My wrinkles in the eye area have improved, % Responders Score 5 [1]: 0%
- Q1 My wrinkles in the eye area have improved, % Responders Score 5 [2]: 50%
- Q1 My wrinkles in the eye area have improved, % Responders Score 5 [3]: 0%
- Q1 My wrinkles in the eye area have improved, % Responders Score 5 [4]: 0%
- Q1 My wrinkles in the eye area have improved, % Responders Score 5 [5]: 0%
- Q1 My wrinkles in the eye area have improved, % Responders Score 5 [6]: 0%
- Q3 how do you feel about the treated area surrounding your eyes and the appearance of wrinkles, % Responders Score 5 [1]: 0%
- Q3 how do you feel about the treated area surrounding your eyes and the appearance of wrinkles, % Responders Score 5 [2]: 0%
- Q3 how do you feel about the treated area surrounding your eyes and the appearance of wrinkles, % Responders Score 5 [3]: 0%
- Q3 how do you feel about the treated area surrounding your eyes and the appearance of wrinkles, % Responders Score 5 [4]: 0%
- Q3 how do you feel about the treated area surrounding your eyes and the appearance of wrinkles, % Responders Score 5 [5]: 0%
- Q3 how do you feel about the treated area surrounding your eyes and the appearance of wrinkles, % Responders Score 5 [6]: 0%
- Q2 appearance of my skin around either of my eyes, % Responders Score 5 [1]: 0%
- Q2 appearance of my skin around either of my eyes, % Responders Score 5 [2]: 0%
- Q2 appearance of my skin around either of my eyes, % Responders Score 5 [3]: 0%
- Q2 appearance of my skin around either of my eyes, % Responders Score 5 [4]: 0%
- Q2 appearance of my skin around either of my eyes, % Responders Score 5 [5]: 0%
- Q2 appearance of my skin around either of my eyes, % Responders Score 5 [6]: 0%
- Q2 appearance of my skin around either of my eyes, Score (Subject #1, Day 7, Topical 0.15% in Oil (Cohort 1)): 3
- Q2 appearance of my skin around either of my eyes, Score (Subject #1, Day 14, Topical 0.15% in Oil (Cohort 1)): 3
- Q2 appearance of my skin around either of my eyes, Score (Subject #2, Day 7, Topical 0.15% in Oil (Cohort 1)): 2
- Q2 appearance of my skin around either of my eyes, Score (Subject #2, Day 14, Topical 0.15% in Oil (Cohort 1)): 2
- Q2 appearance of my skin around either of my eyes, Score (Subject #3, Day 7, Topical 0.15% in PEG (Cohort 2)): 2
- Q2 appearance of my skin around either of my eyes, Score (Subject #3, Day 14, Topical 0.15% in PEG (Cohort 2)): 2
- Q2 appearance of my skin around either of my eyes, Score (Subject #4, Day 7, Topical 0.15% in PEG (Cohort 2)): 3
- Q2 appearance of my skin around either of my eyes, Score (Subject #4, Day 14, Topical 0.15% in PEG (Cohort 2)): 3
- Q2 appearance of my skin around either of my eyes, Score (Subject #5, Day 7, Topical 0.05% in PEG (Cohort 3)): 1
- Q2 appearance of my skin around either of my eyes, Score (Subject #5, Day 14, Topical 0.05% in PEG (Cohort 3)): 1
- Q2 appearance of my skin around either of my eyes, Score (Subject #6, Day 7, Topical 0.05% in PEG (Cohort 3)): 2
- Q2 appearance of my skin around either of my eyes, Score (Subject #6, Day 14, Topical 0.05% in PEG (Cohort 3)): 2
